Experimental data published in US20050014812A1, “Benzimidazole compounds” (Fujisawa Pharmaceutical Co., Ltd., priority 2003, published 2005).

What follows are molecules tested on C57BL/KsJ-db/db (db/db) mice (assay: Plasma glucose and triglyceride lowering in db/db mice (Experimental Example 1)). Details: female db/db mice, 10 mg/kg orally once daily for 7 days, fed state; lean (+m/+m) group = 100% inhibition, db/db control = 0%.
Type: in vivo
Protocol: Female C57BL/KsJ-db/db (db/db) mice and C57BL/KsJ-+m/+m (lean) mice (5 weeks old) were purchased from Jackson Laboratory, and subjected to the test after 1-2 weeks of acclimating period. Animals were maintained on standard laboratory chow and water ad libitum.
Test compound was dissolved or suspended in 0.5% methylcellulose solution and administered orally once a day at a volume of 5 mL/kg of body weight.
• 4-({1-[(3,5-dichloro-2-pyridinyl)methyl]-2,4-dimethyl-1H-benzimidazol-6-yl}oxy)butanoic acid (Example 21) • 4-{[1-(2,4-dichlorobenzyl)-2-ethoxy-4-methyl-1H-benzimidazol-6-yl]oxy}butanoic acid (Example 39) • 2-{[(1-{[3-chloro-5-(trifluoromethyl)-2-pyridinyl]methyl}-2-methyl-1H-benzimidazol-6-yl)oxy]methyl}benzoic acid (Example 75) Test Schedule
At 6 weeks of age, blood was obtained from the retro-orbital sinus by capillary pipette with heparin under feeding condition. Mice were divided into groups matched for body weight, plasma glucose and triglyceride. From 6-7 weeks of age, test compound was administered orally once daily for 7 days. On the next morning of the last administration day, body weight was measured and blood was obtained under feeding condition, and plasma glucose and triglyceride were measured.
Plasma glucose and triglyceride were determined by a mutarotase.glucose oxidase method and a glycerol-3-phosphate oxidase.3,5-dimethoxy-N-ethyl-N-(2′-hydroxy-3′-sulfopropyl)aniline natrium method, respectively, using assay kits from Wako Pure Chemical Industries, Ltd. (Osaka, Japan).
Values of plasma glucose and triglyceride for the lean group (+m/+m) were set as 100% inhibition, and for the control group (db/db) as 0% inhibition. The inhibition rate of plasma glucose and triglyceride for the test group was determined.

| Compound | Inhibition rate of plasma glucose | Inhibition rate of plasma triglyceride |
| --- | --- | --- |
| Cc1cc(OCCCC(=O)O)cc2c1nc(C)n2Cc1ncc(Cl)cc1Cl [Example 21, 4-({1-[(3,5-dichloro-2-pyridinyl)methyl]-2,4-dimethyl-1H-benzimidazol-6-yl}oxy)butanoic acid] | 41% | 55% |
| CCOc1nc2c(C)cc(OCCCC(=O)O)cc2n1Cc1ccc(Cl)cc1Cl [Example 39, 4-{[1-(2,4-dichlorobenzyl)-2-ethoxy-4-methyl-1H-benzimidazol-6-yl]oxy}butanoic acid] | 45% | 60% |
| Cc1nc2ccc(OCc3ccccc3C(=O)O)cc2n1Cc1ncc(C(F)(F)F)cc1Cl [Example 75, 2-{[(1-{[3-chloro-5-(trifluoromethyl)-2-pyridinyl]methyl}-2-methyl-1H-benzimidazol-6-yl)oxy]methyl}benzoic acid] | 72% | 89% |
